In brackets after ≈: the same amount, converted by molar mass. Each block holds one compound with its values, some of them ahead of it.
What was measured:
[1] = molecular target: recombinant human Estrogen Receptor alpha ligand binding domain (ER alpha-LBD (GST)) (Homo sapiens (Human), UniProt P03372); experiment: ERα binding assay (LanthaScreen TR-FRET competition)
[2] = molecular target: T1, Estrogen Receptor (ERα) in MCF-7 cells (Homo sapiens (Human), UniProt P03372); experiment: MCF-7 ER down-regulation assay (immuno-fluorescence); type: cell-based; conditions: for % downregulation (in brackets): maximum downregulation
[3] = molecular target: T1, Estrogen Receptor (ERα) in MCF-7 cells; experiment: Western blotting assay, ER down-regulation in MCF-7; type: cell-based; conditions: MCF-7, 100 nM compound, 48 h, vs 100 nM fulvestrant
[4] = Log D (shake flask, 1-octanol/aqueous buffer); type: physicochemical; conditions: 1-octanol/aqueous buffer, pH 7.4, pH 7.4
[5] = Thermodynamic solubility (shake-flask); type: physicochemical; conditions: aqueous phosphate buffer, 25 °C, pH 7.4, aqueous buffer, thermodynamic from solid, phosphate buffer pH 7.4, 24 hours
[6] = Human plasma protein binding (equilibrium dialysis); type: in vitro ADME
[7] = molecular target: hERG potassium channel (Homo sapiens (Human), UniProt Q12809)
hERG potassium channel, sequence (Q12809 whole entry): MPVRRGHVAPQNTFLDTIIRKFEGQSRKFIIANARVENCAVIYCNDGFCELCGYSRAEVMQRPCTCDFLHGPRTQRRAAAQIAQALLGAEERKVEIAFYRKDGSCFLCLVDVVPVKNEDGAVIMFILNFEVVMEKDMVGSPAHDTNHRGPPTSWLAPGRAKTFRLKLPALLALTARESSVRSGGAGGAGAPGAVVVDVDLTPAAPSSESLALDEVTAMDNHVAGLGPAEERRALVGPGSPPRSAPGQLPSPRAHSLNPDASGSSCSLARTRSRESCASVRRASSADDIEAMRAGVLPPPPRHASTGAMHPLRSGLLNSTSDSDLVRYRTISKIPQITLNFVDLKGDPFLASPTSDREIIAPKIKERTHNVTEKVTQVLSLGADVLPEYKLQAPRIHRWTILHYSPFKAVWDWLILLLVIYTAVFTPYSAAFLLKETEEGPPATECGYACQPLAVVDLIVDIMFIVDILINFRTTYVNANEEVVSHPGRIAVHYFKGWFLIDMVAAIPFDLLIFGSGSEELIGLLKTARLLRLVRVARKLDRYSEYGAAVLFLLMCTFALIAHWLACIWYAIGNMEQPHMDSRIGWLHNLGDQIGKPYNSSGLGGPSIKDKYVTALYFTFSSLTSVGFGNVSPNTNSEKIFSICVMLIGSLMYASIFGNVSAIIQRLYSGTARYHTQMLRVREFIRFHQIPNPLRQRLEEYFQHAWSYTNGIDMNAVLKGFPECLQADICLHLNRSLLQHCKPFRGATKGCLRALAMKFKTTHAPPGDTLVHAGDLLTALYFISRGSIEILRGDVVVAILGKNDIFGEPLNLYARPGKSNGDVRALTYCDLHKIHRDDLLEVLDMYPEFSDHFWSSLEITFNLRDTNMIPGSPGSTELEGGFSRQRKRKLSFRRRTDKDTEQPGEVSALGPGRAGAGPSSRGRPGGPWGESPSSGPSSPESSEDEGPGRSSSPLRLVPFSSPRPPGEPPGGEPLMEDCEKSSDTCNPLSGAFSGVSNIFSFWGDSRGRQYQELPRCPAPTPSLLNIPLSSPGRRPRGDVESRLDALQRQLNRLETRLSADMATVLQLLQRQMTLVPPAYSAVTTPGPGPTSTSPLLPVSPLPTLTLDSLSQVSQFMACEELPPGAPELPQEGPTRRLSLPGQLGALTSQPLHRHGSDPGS

T1 sequence (P03372 whole entry): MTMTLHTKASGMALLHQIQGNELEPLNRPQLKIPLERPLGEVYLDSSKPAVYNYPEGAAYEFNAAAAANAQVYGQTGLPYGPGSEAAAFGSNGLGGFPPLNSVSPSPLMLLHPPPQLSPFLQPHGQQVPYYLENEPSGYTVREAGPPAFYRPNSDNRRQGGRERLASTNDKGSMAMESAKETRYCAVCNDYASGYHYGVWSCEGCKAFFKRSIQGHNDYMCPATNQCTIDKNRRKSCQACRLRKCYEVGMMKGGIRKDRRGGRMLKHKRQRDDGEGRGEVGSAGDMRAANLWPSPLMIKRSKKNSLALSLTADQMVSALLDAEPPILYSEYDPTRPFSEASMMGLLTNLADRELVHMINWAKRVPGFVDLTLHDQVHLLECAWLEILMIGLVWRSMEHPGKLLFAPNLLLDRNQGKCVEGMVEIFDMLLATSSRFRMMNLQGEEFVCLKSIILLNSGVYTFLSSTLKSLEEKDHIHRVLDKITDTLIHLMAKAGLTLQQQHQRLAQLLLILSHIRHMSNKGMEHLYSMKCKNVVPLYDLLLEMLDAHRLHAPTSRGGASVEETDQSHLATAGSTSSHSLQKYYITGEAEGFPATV
recombinant human Estrogen Receptor alpha ligand binding domain (ER alpha-LBD (GST)), sequence (P03372 307-554): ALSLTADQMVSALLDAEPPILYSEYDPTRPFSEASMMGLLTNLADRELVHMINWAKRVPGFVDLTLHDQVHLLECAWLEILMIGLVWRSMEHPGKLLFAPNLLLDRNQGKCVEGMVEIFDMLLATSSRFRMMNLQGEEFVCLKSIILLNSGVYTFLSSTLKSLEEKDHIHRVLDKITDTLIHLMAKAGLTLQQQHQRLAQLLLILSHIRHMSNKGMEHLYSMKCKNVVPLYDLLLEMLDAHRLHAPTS

SMILES: Cc1c(OCCNCCCF)ccc(F)c1[C@@H]1c2[nH]c3ccc(F)cc3c2C[C@@H](C)N1C[C@H](C)C(=O)O [Example 57, (S)-3-((1R,3R)-6-fluoro-1-(6-fluoro-3-(2-((3-fluoropropyl)amino)ethoxy)-2-methylphenyl)-3-methyl-1,3,4,9-tetrahydro-2H-pyrido[3,4-b]indol-2-yl)-2-methylpropanoic acid]
- IC50 [1]: 2.6 nM
- IC50 [2]: 0.34 nM
- MCF7 Western % ER deg vs Fv [3]: 93%

SMILES: Cc1c([C@@H]2c3[nH]c4ccccc4c3C[C@@H](C)N2CC(F)(F)CO)ccnc1OCCNCCCF [Example 103, 2,2-difluoro-3-((1R,3R)-1-(2-(2-((3-fluoropropyl)amino)ethoxy)-3-methylpyridin-4-yl)-3-methyl-1,3,4,9-tetrahydro-2H-pyrido[3,4-b]indol-2-yl)propan-1-ol]
- IC50 [1]: 0.56 nM
- IC50 [2]: 0.084 nM
- logD [4]: 2.9
- solubility at 24 h [5]: 660 µM (≈ 324 µg/mL)
- Human plasma protein binding (% free) [6]: 2 % free
- IC50 [7]: 4300 nM

SMILES: Cc1ccc(OCCNCCCF)nc1[C@@H]1c2[nH]c3ccccc3c2C[C@@H](C)N1CC(F)(F)F [Example 105, 3-fluoro-N-(2-((5-methyl-6-((1S,3R)-3-methyl-2-(2,2,2-trifluoroethyl)-2,3,4,9-tetrahydro-1H-pyrido[3,4-b]indol-1-yl)pyridin-2-yl)oxy)ethyl)propan-1-amine]
- IC50 [1]: 42 nM
- IC50 [2]: 39 nM
- logD [4]: 3.4
- solubility at 24 h [5]: 136 µM (≈ 65.1 µg/mL)
- Human plasma protein binding (% free) [6]: 1 % free
- IC50 [7]: 3500 nM

SMILES: C[C@@H]1Cc2c([nH]c3ccccc23)[C@@H](c2c(F)cnc(OCCNCCCF)c2F)N1CC1(F)CC1 [Example 108, N-(2-((3,5-difluoro-4-((1R,3R)-2-((1-fluorocyclopropyl)methyl)-3-methyl-2,3,4,9-tetrahydro-1H-pyrido[3,4-b]indol-1-yl)pyridin-2-yl)oxy)ethyl)-3-fluoropropan-1-amine]
- IC50 [1]: 1 nM
- IC50 [2]: 0.3 nM
- logD [4]: 3.2
- solubility at 24 h [5]: 375 µM (≈ 184 µg/mL)
- Human plasma protein binding (% free) [6]: 2.3 % free
- IC50 [7]: 6000 nM

SMILES: COc1nnc(OCCNCCCF)cc1[C@@H]1c2[nH]c3ccccc3c2C[C@@H](C)N1CC(F)(F)F [Example 112, 3-fluoro-N-(2-((6-methoxy-5-((1R,3R)-3-methyl-2-(2,2,2-trifluoroethyl)-2,3,4,9-tetrahydro-1H-pyrido[3,4-b]indol-1-yl)pyridazin-3-yl)oxy)ethyl)propan-1-amine]
- IC50 [1]: 2 nM
- IC50 [2]: 0.95 nM
- logD [4]: 3.2
- solubility at 24 h [5]: 92 µM (≈ 45.6 µg/mL)
- Human plasma protein binding (% free) [6]: 1.5 % free
- IC50 [7]: 19000 nM

SMILES: Cc1c(OCCNCCCF)ncnc1[C@@H]1c2[nH]c3ccccc3c2C[C@@H](C)N1CC(F)(F)F [Example 114, 3-fluoro-N-(2-((5-methyl-6-((1S,3R)-3-methyl-2-(2,2,2-trifluoroethyl)-2,3,4,9-tetrahydro-1H-pyrido[3,4-b]indol-1-yl)pyrimidin-4-yl)oxy)ethyl)propan-1-amine]
- IC50 [1]: 0.74 nM
- IC50 [2]: 0.2 nM
- logD [4]: 3.3
- solubility at 24 h [5]: 276 µM (≈ 132 µg/mL)
- Human plasma protein binding (% free) [6]: 1.7 % free
- IC50 [7]: 5900 nM

SMILES: C[C@@H]1Cc2c([nH]c3ccccc23)[C@@H](c2c(Cl)ccc(OCCNCCCF)c2Cl)N1C[C@H](C)C(=O)O [Example 128, (S)-3-((1R,3R)-1-(2,6-dichloro-3-(2-((3-fluoropropyl)amino)ethoxy)phenyl)-3-methyl-1,3,4,9-tetrahydro-2H-pyrido[3,4-b]indol-2-yl)-2-methylpropanoic acid]
- IC50 [1]: 3.4 nM
- IC50 [2]: 1.1 nM
- logD [4]: 1
- solubility at 24 h [5]: 973 µM (≈ 522 µg/mL)
- Human plasma protein binding (% free) [6]: 15 % free
- IC50 [7]: > 40000 nM

SMILES: Cc1c([C@@H]2c3[nH]c4ccccc4c3C[C@@H](C)N2C[C@H](C)C(=O)O)ccnc1OCCNCCCF [Example 132, (S)-3-((1R,3R)-1-(2-(2-((3-fluoropropyl)amino)ethoxy)-3-methylpyridin-4-yl)-3-methyl-1,3,4,9-tetrahydro-2H-pyrido[3,4-b]indol-2-yl)-2-methylpropanoic acid]
- IC50 [1]: 2 nM
- IC50 [2]: 0.98 nM
- logD [4]: 0.6
- solubility at 24 h [5]: 914 µM (≈ 441 µg/mL)
- Human plasma protein binding (% free) [6]: 34 % free
- IC50 [7]: > 40000 nM

SMILES: Cc1c(OCCNCCCF)ccc(F)c1[C@@H]1c2[nH]c3ccccc3c2C[C@@H](C(F)(F)F)N1C[C@H](C)C(=O)O [Example 140, (S)-3-((1R,3S)-1-(6-fluoro-3-(2-((3-fluoropropyl)amino)ethoxy)-2-methylphenyl)-3-(trifluoromethyl)-1,3,4,9-tetrahydro-2H-pyrido[3,4-b]indol-2-yl)-2-methylpropanoic acid]
- IC50 [1]: 1.4 nM
- IC50 [2]: 1 nM
- MCF7 Western % ER deg vs Fv [3]: 84%

- MCF7 Western % ER deg vs Fv [3]: 94%
SMILES: Cc1c(OCCN(C)CCCF)ncc(F)c1[C@@H]1c2[nH]c3ccccc3c2C[C@@H](C)N1C[C@H](C)C(=O)O [Example 145, (S)-3-((1R,3R)-1-(5-fluoro-2-(2-((3-fluoropropyl)(methyl)amino)ethoxy)-3-methylpyridin-4-yl)-3-methyl-1,3,4,9-tetrahydro-2H-pyrido[3,4-b]indol-2-yl)-2-methylpropanoic acid]

SMILES: Cc1c(OCCN(C)CCCF)ccc(F)c1[C@@H]1c2[nH]c3ccccc3c2C[C@@H](C(F)(F)F)N1C[C@H](C)C(=O)O [Example 149, (S)-3-((1R,3S)-1-(6-fluoro-3-(2-((3-fluoropropyl)(methyl)amino)ethoxy)-2-methylphenyl)-3-(trifluoromethyl)-1,3,4,9-tetrahydro-2H-pyrido[3,4-b]indol-2-yl)-2-methylpropanoic acid]
- IC50 [1]: 1.5 nM
- IC50 [2]: 0.85 nM
- % downregulation (in brackets) [2]: 86%
- logD [4]: 2.2
- solubility at 24 h [5]: 523 µM (≈ 297 µg/mL)
- Human plasma protein binding (% free) [6]: 5.3 % free
- IC50 [7]: > 40000 nM

- MCF7 Western % ER deg vs Fv [3]: 93%
SMILES: Cc1c(OCCN(C)CCCF)ncc(F)c1[C@@H]1c2[nH]c3ccccc3c2C[C@@H](C)N1C[C@@H](C)C(=O)O [Example 152, (R)-3-((1R,3R)-1-(5-fluoro-2-(2-((3-fluoropropyl)(methyl)amino)ethoxy)-3-methylpyridin-4-yl)-3-methyl-1,3,4,9-tetrahydro-2H-pyrido[3,4-b]indol-2-yl)-2-methylpropanoic acid]

SMILES: C[C@@H]1Cc2c([nH]c3ccccc23)[C@@H](c2c(F)ccc(OCCN(C)CCCF)c2F)N1CC1(F)COC1 [Example 154, N-(2-(2,4-difluoro-3-((1R,3R)-2-((3-fluorooxetan-3-yl)methyl)-3-methyl-2,3,4,9-tetrahydro-1H-pyrido[3,4-b]indol-1-yl)phenoxy)ethyl)-3-fluoro-N-methylpropan-1-amine]
- IC50 [1]: 1.2 nM
- IC50 [2]: 0.89 nM
- % downregulation (in brackets) [2]: 79%
- logD [4]: 3.5
- solubility at 24 h [5]: 49 µM (≈ 25.5 µg/mL)
- Human plasma protein binding (% free) [6]: 2.7 % free
- IC50 [7]: 4300 nM

SMILES: Cc1c([C@@H]2c3[nH]c4ccccc4c3C[C@@H](C)N2C[C@@H](C)C(=O)O)ccnc1OCCN(C)CCCF [Example 161, (R)-3-((1R,3R)-1-(2-(2-((3-fluoropropyl)(methyl)amino)ethoxy)-3-methylpyridin-4-yl)-3-methyl-1,3,4,9-tetrahydro-2H-pyrido[3,4-b]indol-2-yl)-2-methylpropanoic acid]
- IC50 [1]: 1.7 nM
- IC50 [2]: 1.1 nM
- logD [4]: 1.3
- solubility at 24 h [5]: > 1000 µM
- Human plasma protein binding (% free) [6]: 6.3 % free
- IC50 [7]: > 40000 nM
